We go through 2 compounds from patent publication US20090215627A1, “Crystal Structure of Biotin Carboxylase (Bc) Domain of Acetyl-Coenzyme a Carboxylase and Methods of Use Thereof” (priority 2004, published 2009).

Experiment [1] has as its target T1, N485G mutant yeast BC domain (Saccharomyces cerevisiae, UniProt Q00955, N485G).
T1 construct: Residues 2-581 of yeast ACC were sub-cloned into the pET28a vector; made in house; host or cells: E. coli
Description: radioactive binding assay, N485G mutant. As to conditions: read-out: Kd (nM) (radiactive assay). The protocol:
(§1) The mutants were designed based on the structural information and made with the QuikChange kit (Stratagene). The mutants were sequenced, expressed in E. coli, and purified following the same protocol as that for the wild-type BC domain. The affinity of soraphen for the mutants were assessed using a radioactive binding assay (Weatherly et al., supra (2004)).

In a further experiment the target is T2, BC domain of human ACC2 (Homo sapiens, UniProt O00763).
T2 construct: the BC domains of human ACC1 and ACC2
Description: binding to BC domain of human ACC2 (unpublished results).

Experiment [2] concerns the target T3, W487R mutant yeast BC domain (Saccharomyces cerevisiae, UniProt Q00955, W487R).
T3 construct: Residues 2-581 of yeast ACC were sub-cloned into the pET28a vector; made in house; host or cells: E. coli
The experiment can be described thus: fluorescence-based binding assay, W487R mutant. The conditions noted are these: W487R mutant (data not shown). As to the method:
(§2) We have developed a fluorescence-based binding assay using our structural information, which monitored the increase in Trp emission upon soraphen binding. The binding buffer initially contained 100 mM Tris (pH 8.0), 100 mM NaCl, and 50 nM wild-type or mutant enzyme, and increasing concentrations of soraphen A was titrated into the solution. The observed binding curve is fitted using conventional methods or the tight-binding model where appropriate.
(§3) We next developed a fluorescence-based binding assay using the structural information. […] There is also a slight blue shift in the fluorescence emission maximum upon soraphen binding. The observed increase in Trp fluorescence as a function of soraphen concentration can be easily fit to a one-site binding model (FIG. 5), confirming that there is a single binding site for soraphen in the BC domain. The binding affinity obtained from this fluorescence assay is generally in good agreement with that based on the radioactive binding assay (Table 3) (Weatherly et al., supra (2004)). Compared to the radioactive assay, the fluorescence assay has the advantage that it can measure affinity between 1 nM to 10 μM, whereas the radioactive assay is limited to Kd values […] ˜50 nM.

The target in experiment [3] is T4, F510I mutant yeast BC domain (Saccharomyces cerevisiae, UniProt Q00955, F510I).
T4 construct: Residues 2-581 of yeast ACC were sub-cloned into the pET28a vector; made in house; host or cells: E. coli
The experiment can be described thus: radioactive binding assay, F510I mutant. The conditions noted are these: read-out: Kd (nM) (radiactive assay). The protocol: as §1

For experiment [4], the target named is T5, K73R mutant of the BC domain (Saccharomyces cerevisiae, UniProt Q00955, K73R).
T5 construct: Residues 2-581 of yeast ACC were sub-cloned into the pET28a vector; made in house; host or cells: E. coli
Description: native gel electrophoresis assay, K73R mutant. As to conditions: K73R mutant of yeast BC domain, 12% native gel. The protocol: (§4) FIG. 7. […] Schematic drawing of the dimer of E. coli BC subunit in complex with ATP (Thoden et al., supra 2000). The dimer axis is indicated with the magenta oval. […] (B). Native gel (12%) showing the electrophoretic mobility of wild-type and K73R mutant of yeast BC domain in the absence or presence of soraphen. […] Each lane was loaded with 20 μg of protein in 10 μl.
(§5) To obtain experimental evidence for the effects of soraphen A on the oligomerization state of BC domains, we examined the mobility of the yeast BC domain in a native gel electrophoresis assay.

In experiment [5] the target is T6, S77Y mutant yeast BC domain (Saccharomyces cerevisiae, UniProt Q00955, S77Y).
T6 construct: Residues 2-581 of yeast ACC were sub-cloned into the pET28a vector; made in house; host or cells: E. coli
The experiment can be described thus: radioactive binding assay, S77Y mutant. The conditions noted are these: up to 60 nM soraphen A, 10 nM protein, read-out: Kd (nM) (radiactive assay). As to the method: as §1

A further experiment relates to ACC. As to conditions: kinetic data, literature; cited from earlier work.
The next experiment deals with bacterial BC subunits. The conditions noted are these: literature; cited from earlier work.
For experiment [6], the target named is T3, W487R mutant yeast BC domain. The experiment can be described thus: radioactive binding assay, W487R mutant. The conditions noted are these: up to 60 nM soraphen A, 10 nM protein, read-out: Kd (nM) (radiactive assay). The protocol: as §1
In experiment [7] the target is T7, K73R mutant yeast BC domain (Saccharomyces cerevisiae, UniProt Q00955, K73R).
T7 construct: Residues 2-581 of yeast ACC were sub-cloned into the pET28a vector; made in house; host or cells: E. coli
The experiment can be described thus: fluorescence-based binding assay, K73R mutant. The protocol:
as §2, §3

The target of experiment [8] is BC domain of eukaryotic ACCs. As to conditions: literature; cited from earlier work.
In experiment [9] the target is T8, Wild-type yeast BC domain (Saccharomyces cerevisiae, UniProt Q00955).
T8 construct: Residues 2-581 of yeast ACC were sub-cloned into the pET28a vector; made in house; host or cells: E. coli BL21(DE3) Rosetta
Description: fluorescence-based binding assay (Trp emission), wild-type. As to conditions: 50 nM enzyme. The protocol:
as §2, §3

The target of another experiment is T9, BC domain of human ACC1 (Homo sapiens, UniProt Q13085).
T9 construct: the BC domains of human ACC1 and ACC2
The experiment can be described thus: binding to BC domain of human ACC1 (unpublished results).

In experiment [10] the target is T10, I69E mutant yeast BC domain (Saccharomyces cerevisiae, UniProt Q00955, I69E).
T10 construct: Residues 2-581 of yeast ACC were sub-cloned into the pET28a vector; made in house; host or cells: E. coli
Description: fluorescence-based binding assay, I69E mutant. As to conditions: 50 nM enzyme. As to the method: as §2, §3

The target in experiment [11] is T4, F510I mutant yeast BC domain. Description: fluorescence-based binding assay, F510I mutant. The protocol: as §2, §3
The target of experiment [12] is K73R mutation of yeast ACC (Saccharomyces cerevisiae, UniProt Q00955, K73R). As to conditions: cited from earlier work.
In experiment [13] the target is T11, E477R mutant yeast BC domain (Saccharomyces cerevisiae, UniProt Q00955, E477R).
T11 construct: Residues 2-581 of yeast ACC were sub-cloned into the pET28a vector; made in house; host or cells: E. coli
The experiment can be described thus: radioactive binding assay, E477R mutant. The conditions noted are these: read-out: Kd (nM) (radiactive assay). The protocol:
as §1

The target of experiment [14] is T8, Wild-type yeast BC domain. Description: native gel electrophoresis assay, wild-type BC domain. The conditions noted are these: 12% native gel. As to the method:
as §4, §5

Experiment [15] deals with yeast ACC Ser77 to Tyr mutant (Saccharomyces cerevisiae, UniProt Q00955, S77Y). As to conditions: yeast ACC with Ser77 mutated to Tyr, literature; cited from earlier work.
Experiment [16] concerns the target T1, N485G mutant yeast BC domain. The experiment can be described thus: fluorescence-based binding assay, N485G mutant. The conditions noted are these: 50 nM enzyme. The protocol:
as §2, §3

Experiment [17] has as its target T8, Wild-type yeast BC domain. The experiment can be described thus: radioactive binding assay, wild-type yeast BC domain. The conditions noted are these: read-out: Kd (nM) (radiactive assay). The protocol:
as §1

Experiment [18] has as its target T11, E477R mutant yeast BC domain. The experiment can be described thus: fluorescence-based binding assay, E477R mutant. As to conditions: 50 nM enzyme. As to the method:
as §2, §3

Experiment [19] has as its target T12, active site of yeast BC domain (Saccharomyces cerevisiae, UniProt Q00955).
T12 construct: Residues 2-581 of yeast ACC were sub-cloned into the pET28a vector; made in house; host or cells: E. coli BL21(DE3) Rosetta
The experiment can be described thus: binding of fluorescent ATP analog (Mant-ATP) to active site. As to conditions: preliminary experiments, unpublished data.

In experiment [20] the target is T7, K73R mutant yeast BC domain. The experiment can be described thus: radioactive binding assay, K73R mutant. The conditions noted are these: up to 60 nM soraphen A, 10 nM protein, read-out: Kd (nM) (radiactive assay). The protocol:
as §1

Experiment [21] concerns the target T10, I69E mutant yeast BC domain. The experiment can be described thus: radioactive binding assay, I69E mutant. As to conditions: up to 60 nM soraphen A, 10 nM protein, read-out: Kd (nM) (radiactive assay). As to the method:
as §1

The conditions of experiment [22]: literature SAR, in words; cited from earlier work.

T7 sequence (Q00955 2-581 K73R): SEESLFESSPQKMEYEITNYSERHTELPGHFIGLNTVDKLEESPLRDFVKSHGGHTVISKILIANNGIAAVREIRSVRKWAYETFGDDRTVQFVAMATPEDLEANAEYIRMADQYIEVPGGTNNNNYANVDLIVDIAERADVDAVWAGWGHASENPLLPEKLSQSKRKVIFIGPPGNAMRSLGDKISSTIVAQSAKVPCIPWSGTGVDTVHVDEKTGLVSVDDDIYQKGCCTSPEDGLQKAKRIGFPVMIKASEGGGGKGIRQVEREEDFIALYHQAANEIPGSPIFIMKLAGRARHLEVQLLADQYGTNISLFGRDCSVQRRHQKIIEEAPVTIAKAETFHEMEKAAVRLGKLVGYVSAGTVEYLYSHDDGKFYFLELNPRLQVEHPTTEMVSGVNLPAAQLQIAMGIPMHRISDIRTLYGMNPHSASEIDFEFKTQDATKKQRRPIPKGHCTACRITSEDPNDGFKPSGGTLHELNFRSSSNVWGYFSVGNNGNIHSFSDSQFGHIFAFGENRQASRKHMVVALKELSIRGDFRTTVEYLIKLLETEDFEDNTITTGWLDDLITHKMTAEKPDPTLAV
T8 sequence (Q00955 2-581): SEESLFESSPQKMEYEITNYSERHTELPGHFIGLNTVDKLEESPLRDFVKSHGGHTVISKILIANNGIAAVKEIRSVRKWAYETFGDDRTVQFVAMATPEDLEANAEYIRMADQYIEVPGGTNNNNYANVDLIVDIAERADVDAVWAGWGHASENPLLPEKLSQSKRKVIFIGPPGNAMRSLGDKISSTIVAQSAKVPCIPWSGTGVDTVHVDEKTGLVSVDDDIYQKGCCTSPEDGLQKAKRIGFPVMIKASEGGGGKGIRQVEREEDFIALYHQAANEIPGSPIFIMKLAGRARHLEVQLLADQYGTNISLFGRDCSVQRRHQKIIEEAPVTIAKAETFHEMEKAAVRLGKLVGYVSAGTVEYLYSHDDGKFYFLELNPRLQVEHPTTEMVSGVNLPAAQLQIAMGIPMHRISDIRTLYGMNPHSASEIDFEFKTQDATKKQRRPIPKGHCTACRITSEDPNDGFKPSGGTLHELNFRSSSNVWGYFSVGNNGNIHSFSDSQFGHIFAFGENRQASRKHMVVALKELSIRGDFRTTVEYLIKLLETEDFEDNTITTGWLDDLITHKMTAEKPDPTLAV
T4 sequence (Q00955 2-581 F510I): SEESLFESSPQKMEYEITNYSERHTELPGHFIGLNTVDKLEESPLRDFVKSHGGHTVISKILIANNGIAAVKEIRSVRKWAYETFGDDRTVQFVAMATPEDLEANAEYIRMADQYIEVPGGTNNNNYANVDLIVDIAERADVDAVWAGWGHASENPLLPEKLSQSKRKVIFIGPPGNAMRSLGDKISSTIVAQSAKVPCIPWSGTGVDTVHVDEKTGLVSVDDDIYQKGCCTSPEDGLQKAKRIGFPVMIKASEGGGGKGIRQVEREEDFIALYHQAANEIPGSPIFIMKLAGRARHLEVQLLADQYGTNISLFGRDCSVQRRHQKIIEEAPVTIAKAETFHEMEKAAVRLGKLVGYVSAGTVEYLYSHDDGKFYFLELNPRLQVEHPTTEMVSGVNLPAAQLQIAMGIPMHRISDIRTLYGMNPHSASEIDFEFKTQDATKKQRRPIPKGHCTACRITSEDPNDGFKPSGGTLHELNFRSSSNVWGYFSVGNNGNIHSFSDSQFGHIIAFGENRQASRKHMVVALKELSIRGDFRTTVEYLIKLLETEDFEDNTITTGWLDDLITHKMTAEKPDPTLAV
T3 sequence (Q00955 2-581 W487R): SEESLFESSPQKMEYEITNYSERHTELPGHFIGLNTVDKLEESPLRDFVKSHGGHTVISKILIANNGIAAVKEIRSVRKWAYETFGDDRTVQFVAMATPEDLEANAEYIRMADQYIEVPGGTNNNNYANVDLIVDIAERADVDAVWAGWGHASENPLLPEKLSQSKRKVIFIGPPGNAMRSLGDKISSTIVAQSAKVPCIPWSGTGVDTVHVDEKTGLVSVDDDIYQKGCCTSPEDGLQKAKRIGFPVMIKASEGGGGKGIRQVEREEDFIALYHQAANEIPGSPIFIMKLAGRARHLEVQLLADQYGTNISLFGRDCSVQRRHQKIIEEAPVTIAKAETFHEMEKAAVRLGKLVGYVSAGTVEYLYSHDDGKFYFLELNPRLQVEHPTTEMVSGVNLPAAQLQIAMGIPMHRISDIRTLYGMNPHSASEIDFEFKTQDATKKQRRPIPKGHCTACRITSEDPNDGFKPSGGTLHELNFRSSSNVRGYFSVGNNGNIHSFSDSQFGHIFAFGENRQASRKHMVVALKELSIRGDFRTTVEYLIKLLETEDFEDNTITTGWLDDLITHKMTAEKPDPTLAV
T11 sequence (Q00955 2-581 E477R): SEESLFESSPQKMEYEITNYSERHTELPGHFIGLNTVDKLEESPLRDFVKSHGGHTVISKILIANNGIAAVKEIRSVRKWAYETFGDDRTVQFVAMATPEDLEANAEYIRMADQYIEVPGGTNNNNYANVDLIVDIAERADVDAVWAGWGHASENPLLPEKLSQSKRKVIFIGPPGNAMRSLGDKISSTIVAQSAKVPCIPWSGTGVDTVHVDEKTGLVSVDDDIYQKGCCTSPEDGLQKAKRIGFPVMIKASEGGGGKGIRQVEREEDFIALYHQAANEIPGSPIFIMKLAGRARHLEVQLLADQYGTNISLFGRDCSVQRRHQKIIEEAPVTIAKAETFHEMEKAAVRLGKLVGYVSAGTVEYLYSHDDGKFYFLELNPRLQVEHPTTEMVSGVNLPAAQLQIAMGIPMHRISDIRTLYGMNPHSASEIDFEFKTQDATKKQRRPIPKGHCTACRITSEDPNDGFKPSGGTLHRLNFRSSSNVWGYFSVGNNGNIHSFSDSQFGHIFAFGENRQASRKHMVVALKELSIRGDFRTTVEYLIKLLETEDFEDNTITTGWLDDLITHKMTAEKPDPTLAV
T1 sequence (Q00955 2-581 N485G): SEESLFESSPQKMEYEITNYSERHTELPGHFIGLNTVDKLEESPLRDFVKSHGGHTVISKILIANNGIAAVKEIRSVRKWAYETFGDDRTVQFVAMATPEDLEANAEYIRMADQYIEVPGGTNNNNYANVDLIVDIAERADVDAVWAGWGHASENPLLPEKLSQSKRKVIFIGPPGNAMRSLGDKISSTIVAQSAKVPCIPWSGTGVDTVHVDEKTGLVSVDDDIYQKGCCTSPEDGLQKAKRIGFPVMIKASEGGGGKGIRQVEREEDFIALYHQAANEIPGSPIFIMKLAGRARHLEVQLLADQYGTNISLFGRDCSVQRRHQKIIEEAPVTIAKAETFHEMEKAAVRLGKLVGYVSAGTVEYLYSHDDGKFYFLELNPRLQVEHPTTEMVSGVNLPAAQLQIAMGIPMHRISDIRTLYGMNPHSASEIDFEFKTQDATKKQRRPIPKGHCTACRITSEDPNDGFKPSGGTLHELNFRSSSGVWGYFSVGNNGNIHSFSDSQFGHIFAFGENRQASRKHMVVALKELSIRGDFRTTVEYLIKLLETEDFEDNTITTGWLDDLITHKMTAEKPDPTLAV
T10 sequence (Q00955 2-581 I69E): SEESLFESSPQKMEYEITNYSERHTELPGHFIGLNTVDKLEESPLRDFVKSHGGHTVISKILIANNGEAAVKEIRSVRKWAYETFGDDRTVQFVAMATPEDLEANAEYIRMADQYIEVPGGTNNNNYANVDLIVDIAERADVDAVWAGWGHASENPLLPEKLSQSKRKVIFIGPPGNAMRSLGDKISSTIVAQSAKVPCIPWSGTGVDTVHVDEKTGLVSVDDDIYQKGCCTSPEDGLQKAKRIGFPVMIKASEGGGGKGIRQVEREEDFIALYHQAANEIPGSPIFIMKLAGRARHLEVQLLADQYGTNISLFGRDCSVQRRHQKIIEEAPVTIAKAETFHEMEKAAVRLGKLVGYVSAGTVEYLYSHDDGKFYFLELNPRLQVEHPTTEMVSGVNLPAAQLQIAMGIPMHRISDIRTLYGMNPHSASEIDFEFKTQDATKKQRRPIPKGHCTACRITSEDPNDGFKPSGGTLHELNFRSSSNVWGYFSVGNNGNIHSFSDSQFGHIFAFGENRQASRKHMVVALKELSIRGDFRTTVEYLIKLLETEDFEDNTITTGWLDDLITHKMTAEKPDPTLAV
T2 sequence (O00763 259-761 limits assumed): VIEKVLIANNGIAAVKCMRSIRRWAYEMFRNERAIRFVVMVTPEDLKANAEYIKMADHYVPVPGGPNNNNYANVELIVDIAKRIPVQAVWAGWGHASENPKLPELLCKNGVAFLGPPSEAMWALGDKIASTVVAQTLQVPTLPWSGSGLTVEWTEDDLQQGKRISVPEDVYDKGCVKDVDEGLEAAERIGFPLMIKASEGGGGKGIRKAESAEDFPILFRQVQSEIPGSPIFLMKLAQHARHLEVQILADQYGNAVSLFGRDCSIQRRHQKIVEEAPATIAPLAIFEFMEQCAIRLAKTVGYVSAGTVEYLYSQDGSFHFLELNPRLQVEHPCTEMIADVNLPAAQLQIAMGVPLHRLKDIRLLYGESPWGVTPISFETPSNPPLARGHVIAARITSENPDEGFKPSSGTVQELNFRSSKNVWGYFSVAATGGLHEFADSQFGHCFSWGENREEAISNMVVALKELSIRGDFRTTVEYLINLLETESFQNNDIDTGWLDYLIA

In the case of `CO[C@H]1CCCC[C@@H](c2ccccc2)OC(=O)[C@@H](C)[C@@]2(O)O[C@H]([C@@H](C)[C@H](O)[C@H]2OC)[C@@H](C)/C=C/[C@H]1OC` [soraphen A], the Kd (usually a measure of binding affinity in units of concentration) in experiment [1] was 2.7 ± 0.4 nM; on BC domain of human ACC2, about 0.001 µM; in experiment [3], 5.7 ± 1 nM; in experiment [5] it was over 60 nM; in experiment [6], over 60 nM; in experiment [7] (K73R yeast BC domain, 50 nM enzyme), 2010 ± 174 nM. Also, the dissociation constant Kd is about 0.001 µM in experiment [8]; 3.9 ± 0.7 nM in [9]; about 0.001 µM at BC domain of human ACC1; 104 ± 18 nM in experiment [10]; 10.6 ± 4.8 nM in experiment [11] (F510I yeast BC domain, 50 nM enzyme); 24.7 ± 10.4 nM in experiment [13]. Further, the Kd in [16] is 55 ± 4 nM; in [17] it was 2 ± 0.9 nM; in [18] it was 274 ± 30 nM; in experiment [20], over 60 nM; in [21] it was over 60 nM. Also, the “fluorescence change in the presence of soraphen” value in experiment [2] is given as “little fluorescence change”. Also, the “electrophoretic mobility in native gel in the presence of soraphen A” value in [4] was “not affected”; in experiment [14], “a sharp band is observed, with the fastest migrating speed”. Moreover, the “mode of inhibition with respect to the substrates of ACC” value in the experiment on ACC is “noncompetitive”. Also, the “effect on bacterial BC subunits” value in the experiment on bacterial BC subunits was “no effect”. For the same compound, the “Kd (in words)” value in experiment [7] (K73R mutant) is “micromolar range”. The “loss in affinity for soraphen” value in [7] (K73R mutant versus wild-type) turned out to be 500 fold. Besides, in experiment [11] (F510I mutation versus wild-type), the “impact on the affinity for soraphen” value is recorded as “minor impact”. Further, the “resistance to soraphen A” value in experiment [12] is listed as “resistance”. Moreover, the “sensitivity of the enzyme to soraphen A” value in experiment [15] was “insensitive”. The “interference with the binding of Mant-ATP to the active site” value in [19] was “does not interfere”.
For soraphen F, the “activity relative to soraphen A” value in experiment [22] was “moderate loss of activity”.
